Where “and” joins values, the source holds several entries; their conditions need not be identical. Equal values may be shown once.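 Where inhibition never reached the appropriate level, the endpoint shown equals the highest concentration tested. Otherwise, values were interpolated linearly from a five-concentration, 48-hour dose response in 96-well plates. Abbreviation: GI50, concentration required for 50% inhibition of growth. TGI: total growth inhibition.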
Legend:
Experiment in all cases: NCI tumour cell line growth inhibition, 48 h
A498 renal = tested on: A498 renal
A549 NSCLC = tested on: A549 NSCLC
CAKI-1 renal = tested on: CAKI-1 renal
NCI-H460 lung = tested on: NCI-H460 lung
NCI-H522 lung = tested on: NCI-H522 lung
SF-295 CNS = tested on: SF-295 CNS
SN12C renal = tested on: SN12C renal
SNB-19 CNS = tested on: SNB-19 CNS
SNB-75 CNS = tested on: SNB-75 CNS
TK-10 renal = tested on: TK-10 renal

| Compound | TGI (A498 renal) | TGI (A549 NSCLC) | TGI (CAKI-1 renal) [µM] | TGI (NCI-H460 lung) | TGI (NCI-H522 lung) [µM] | TGI (SF-295 CNS) [µM] | TGI (SN12C renal) [µM] | TGI (SNB-19 CNS) | TGI (SNB-75 CNS) | TGI (TK-10 renal) [µM] | GI50 (A498 renal) | GI50 (NCI-H522 lung) [µM] | GI50 (SF-295 CNS) | GI50 (SN12C renal) [µM] | GI50 (SNB-19 CNS) | GI50 (SNB-75 CNS) | GI50 (TK-10 renal) [µM] |
| --- | --- | --- | --- | --- | --- | --- | --- | --- | --- | --- | --- | --- | --- | --- | --- | --- | --- |
| COC(=O)CC1c2ccccc2N2C(=O)Cc3c([nH]c4ccccc34)C12 (stereo not given) | > 100 µM | > 100 µM | > 100 | > 100 µM | > 100 | > 100 | > 100 | > 100 µM | > 100 µM | > 100 | – | – | – | – | – | – | – |
| COC(=O)CCC(NC(=O)OC(C)(C)C)C(=O)NC(Cc1ccc(NC(=O)CCCC(C)=O)cc1)C(=O)NC(CCC(=O)OC)C(=O)OC (stereo not given) | > 100 µM | > 100 µM | > 100 | > 100 µM | > 100 | > 100 | > 100 | > 100 µM | > 100 µM | > 100 | – | – | – | – | – | – | – |
| O=CN1CCN(C(=O)c2ccc(Cl)c(Cl)c2)C1=S | 29.8 µM | 35 µM | 28.1 | 36.2 µM | 28.7 | 34.4 | 27.8 | 31.7 µM | 32.3 µM | 30.1 | – | – | – | – | – | – | – |
| CC(C)Oc1c(-c2ccc(F)cc2)c(O)c2c3c1oc(=O)n3C=CC2C (stereo not given) | 28.2 µM | 28 µM | 27.5 | 29.1 µM | 27.2 | 34.6 | 23.8 | 31.9 µM | 31.3 µM | 30.7 | – | – | – | – | – | – | – |
| CC(C)N(C(C)C)S(=O)(=O)C[C@]12CC[C@H](CC13OCC(CS(=O)(=O)c1ccccc1)O3)C2(C)C (stereo not given in full) | > 100 µM | > 100 µM | > 100 | > 100 µM | > 100 | > 83.8 | > 100 | > 100 µM | > 100 µM | 98.7 | – | – | – | – | – | – | – |
| O=C(N/N=C(/COc1ccccc1)N=Cc1cccnc1)c1ccncc1 | > 100 µM | > 100 µM | > 100 | > 100 µM | > 100 | > 100 | > 100 | > 100 µM | > 100 µM | > 100 | – | – | – | – | – | – | – |
| CC1=C(C)SC(=C2Sc3nc(O)[nH]c(=O)c3S2)S1 | > 100 µM | > 100 µM | > 100 | > 100 µM | > 100 | > 100 | > 100 | > 100 µM | > 100 µM | > 100 | – | – | – | – | – | – | – |
| CC1(C)[C@@H]2C[C@H]1c1cnc(-c3ccccn3)cc1C2CCCCC[C@@H]1c2cc(-c3ccccn3)ncc2[C@@H]2C[C@H]1C2(C)C (stereo not given in full) | 8.92 µM | > 36.7 µM | > 30.3 | 24.9 µM | > 100 | 7.33 | > 44.9 | > 100 µM | > 22.6 µM | > 100 | – | – | – | – | – | – | – |
| CN(C)c1ccc(C=C2C(=O)NC(=S)NC2=O)c2ccccc12 | > 100 µM | > 100 µM | > 100 | > 100 µM | 37.5 | > 100 | > 100 | > 100 µM | > 100 µM | > 100 | – | – | – | – | – | – | – |
| CC(=O)OC(C)(C)CCC(=O)[C@](C)(O)[C@H]1[C@H](O)C[C@@]2(C)[C@@H]3CCc4c(cc(OC5OC(CO)C(O)C(O)C5O)c(O)c4C)C3(C)C(=O)C[C@]12C (stereo not given in full) | > 100 µM | > 100 µM | > 100 | > 100 µM | > 100 | > 100 | > 100 | > 100 µM | > 100 µM | > 100 | – | – | – | – | – | – | – |
| CC(=O)N(C(C)=O)c1cc2c3c(c1)CCCN3CCC2 | > 10 µM | > 10 µM | > 10 | > 10 µM | > 10 | > 10 | > 10 | > 10 µM | > 10 µM | > 10 | – | – | – | – | – | – | – |
| COc1ccc2nc3cccc([N+](=O)[O-])c3c(NCCCO)c2c1 | 0.0435 µM and 0.0788 µM | 0.0223 µM and 0.102 µM | 0.0248 | 0.00233 µM and 0.0153 µM | 0.00662 | – | 0.0193 | 0.404 µM and 0.29 µM | 0.0482 µM and 0.263 µM | – | 0.017 µM and 0.0275 µM | 0.00165 | 0.00799 µM and 0.0319 µM | 0.00174 | 0.0159 µM and 0.0252 µM | 0.0151 µM and 0.0535 µM | 0.00188 |
| ClCCCCCc1c2nc(c(CCCCCCl)c3ccc([nH]3)c(CCCCCCl)c3ccc([nH]3)c(CCCCCCl)c3nc1C=C3)C=C2 | > 100 µM | > 100 µM | > 100 | > 100 µM | > 100 | > 100 | > 100 | > 100 µM | > 100 µM | > 100 | – | – | – | – | – | – | – |
| CC1(C)N=C(C2CCCN2C(=O)OCc2ccccc2)OC1=O (stereo not given) | > 100 µM | > 100 µM | > 100 | > 100 µM | > 100 | > 100 | > 100 | > 100 µM | > 100 µM | > 100 | – | – | – | – | – | – | – |
| BrCC[N+]12CC[N+](CCBr)(CC1)C2 | > 100 µM | > 100 µM | > 100 | > 100 µM | > 100 | > 100 | > 100 | > 100 µM | > 100 µM | > 100 | – | – | – | – | – | – | – |
| CCN1CN(c2ccccc2)C2(CCN(CC(CC3OCCO3)c3ccc(F)cc3)CC2)C1=O (stereo not given) | 9.51 µM | > 100 µM | 22.5 | 33 µM | 26.6 | 18.9 | > 89.5 | > 92 µM | 93 µM | > 46.7 | – | – | – | – | – | – | – |

Reference: PubChem BioAssay (NCI)
